Measured values taken from patent US11358957B2, “Microbiocidal oxadiazole derivatives” (SYNGENTA PARTICIPATIONS AG, priority 2017, dated 2022).

What was measured:
[1] = system: Puccinia recondita f. Sp. Tritici; assay: Fungicidal activity against Puccinia recondita f. sp. tritici / wheat / leaf disc preventative (brown rust); type: in vivo; conditions: foliar, 200 ppm in the applied formulation, wheat leaf segments cv. Kanzler, preventative (inoculated 1 day after application), compared to untreated, read-out: disease control
Outline: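 Segments of wheat cv. Kanzler on water agar were sprayed with compound and inoculated with spores 1 day later. They were kept at 19 °C, 75% rh and 12 h light/12 h dark. Percent disease control versus untreated was scored 7–9 days after application; compounds were tested at 200 ppm.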

[2] = system: Glomerella lagenarium (Colletotrichum lagenarium); assay: Fungicidal activity against Glomerella lagenarium (Colletotrichum lagenarium) liquid culture / cucumber / preventative (anthracnose); type: cell-based; conditions: Colletotrichum orbiculare; 20 ppm in the applied formulation; liquid culture (PDB), inhibition of growth measured photometrically 3 to 4 days after application; compared to untreated; read-out: disease control
Outline: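 Conidia from cryogenic storage mixed into potato dextrose broth and added to compound in DMSO in microtiter plates. Incubated at 24° C.; growth inhibition read photometrically 3 to 4 days after application. Disease control expressed relative to untreated control, with compound at 20 ppm in the applied formulation.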

[3] = system: Puccinia recondita f. Sp. Tritici; assay: Fungicidal activity against Puccinia recondita f. sp. tritici / wheat / leaf disc curative (brown rust); type: in vivo; conditions: foliar, 24 h, 200 ppm in the applied formulation, wheat leaf segments cv. Kanzler, curative (applied 1 day after inoculation), compared to untreated, read-out: disease control
Outline: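 Wheat leaf segments (cv. Kanzler) on agar were inoculated with brown rust spores, kept dark at 19 °C and 75% RH, then sprayed 1 day later with compound (DMSO stock diluted in 0.025% Tween20). Under 12 h light/12 h dark at 19 °C, percent disease control versus untreated was scored 6–8 days after application; 200 ppm applied.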

[4] = system: Phakopsora pachyrhizi; assay: Fungicidal activity against Phakopsora pachyrhizi / soybean / leaf disc preventative (Asian soybean rust); type: in vivo; conditions: foliar, 200 ppm in the applied formulation, soybean leaf disks, compared to untreated, read-out: disease control
Experimental: Leaf disks or leaf segments of various plant species are cut from plants grown in a greenhouse. The cut leaf disks or segments are placed in multiwell plates (24-well format) onto water agar. The leaf disks are sprayed with a test solution before (preventative) or after (curative) inoculation. Compounds to be tested are prepared as DMSO solutions (max. 10 mg/mL) which are diluted to the appropriate concentration with 0.025% Tween20 just before spraying. The inoculated leaf disks or segments are incubated under defined conditions (temperature, relative humidity, light, etc.) according to the respective test system. A single evaluation of disease level is carried out 3 to 14 days after inoculation, depending on the pathosystem. Percent disease control relative to the untreated check leaf disks or segments is then calculated. Soybean leaf disks are placed on water agar in multiwell plates (24-well format) and sprayed with the formulated test compound diluted in water. One day after application leaf discs are inoculated by spraying a spore suspension on the lower leaf surface. After an incubation period in a climate cabinet of 24-36 hours in darkness at 20° C. and 75% rh leaf disc are kept at 20° C. with 12 h light/day and 75% rh. The activity of a compound is assessed as percent disease control compared to untreated when an appropriate level of disease damage appears in untreated check leaf disks (12 to 14 days after application). The following compounds at 200 ppm in the applied formulation give at least 80% disease control in this test when compared to untreated control leaf disks under the same conditions, which show extensive disease development.

CCOC(=O)c1cnn(Cc2ccc(-c3noc(C(F)(F)F)n3)s2)c1 [Compound 1.1, ethyl 1-[[5-[5-(trifluoromethyl)-1,2,4-oxadiazol-3-yl]-2-thienyl]methyl]pyrazole-4-carboxylate]
≥ 80%: pest or weed control at 200 ppm [1] | inhibition of growth at 20 ppm [2] | pest or weed control at 200 ppm [3] | pest or weed control at 200 ppm [4]

COC(=O)c1ncn(Cc2ccc(-c3noc(C(F)(F)F)n3)s2)n1 [Compound 1.6, methyl 1-[[5-[5-(trifluoromethyl)-1,2,4-oxadiazol-3-yl]-2-thienyl]methyl]-1,2,4-triazole-3-carboxylate]
≥ 80%: pest or weed control at 200 ppm [1] | inhibition of growth at 20 ppm [2] | pest or weed control at 200 ppm [3] | pest or weed control at 200 ppm [4]

CN(C)c1ncnn1Cc1ccc(-c2noc(C(F)(F)F)n2)s1 [Compound 1.13, N,N-dimethyl-2-[[5-[5-(trifluoromethyl)-1,2,4-oxadiazol-3-yl]-2-thienyl]methyl]-1,2,4-triazol-3-amine]
≥ 80%: pest or weed control at 200 ppm [1] | inhibition of growth at 20 ppm [2] | pest or weed control at 200 ppm [3] | pest or weed control at 200 ppm [4]

Nc1nc(C(F)F)nn1Cc1ccc(-c2noc(C(F)(F)F)n2)s1 [Compound 1.14, 5-(difluoromethyl)-2-[[5-[5-(trifluoromethyl)-1,2,4-oxadiazol-3-yl]-2-thienyl]methyl]-1,2,4-triazol-3-amine]
≥ 80%: pest or weed control at 200 ppm [1] | inhibition of growth at 20 ppm [2] | pest or weed control at 200 ppm [3] | pest or weed control at 200 ppm [4]

FC(F)(F)c1nc(-c2ccc(Cn3ccnc3)s2)no1 [Compound 1.17, 3-[5-(imidazol-1-ylmethyl)-2-thienyl]-5-(trifluoromethyl)-1,2,4-oxadiazole]
≥ 80%: pest or weed control at 200 ppm [1] | inhibition of growth at 20 ppm [2] | pest or weed control at 200 ppm [3] | pest or weed control at 200 ppm [4]

COCc1nn(Cc2ccc(-c3noc(C(F)(F)F)n3)s2)cc1C(=O)OC [Compound 1.19, methyl 3-(methoxymethyl)-1-[[5-[5-(trifluoromethyl)-1,2,4-oxadiazol-3-yl]-2-thienyl]methyl]pyrazole-4-carboxylate]
≥ 80%: pest or weed control at 200 ppm [1] | inhibition of growth at 20 ppm [2] | pest or weed control at 200 ppm [3] | pest or weed control at 200 ppm [4]

Cc1cc(C)n(Cc2ccc(-c3noc(C(F)(F)F)n3)s2)n1 [Compound 1.21, 3-[5-[(3,5-dimethylpyrazol-1-yl)methyl]-2-thienyl]-5-(trifluoromethyl)-1,2,4-oxadiazole]
≥ 80%: pest or weed control at 200 ppm [1] | inhibition of growth at 20 ppm [2] | pest or weed control at 200 ppm [3] | pest or weed control at 200 ppm [4]

CN(C)C(=O)c1ccnn1Cc1ccc(-c2noc(C(F)(F)F)n2)s1 [Compound 1.58, N,N-dimethyl-2-[[5-[5-(trifluoromethyl)-1,2,4-oxadiazol-3-yl]-2-thienyl]methyl]pyrazole-3-carboxamide]
≥ 80%: pest or weed control at 200 ppm [1] | pest or weed control at 200 ppm [3] | pest or weed control at 200 ppm [4]

O=C(NCc1ccco1)c1cnn(Cc2ccc(-c3noc(C(F)(F)F)n3)s2)c1 [Compound 1.129, N-(2-furylmethyl)-1-[[5-[5-(trifluoromethyl)-1,2,4-oxadiazol-3-yl]-2-thienyl]methyl]pyrazole-4-carboxamide]
≥ 80%: pest or weed control at 200 ppm [1] | inhibition of growth at 20 ppm [2] | pest or weed control at 200 ppm [3]

O=C(Nc1ccccc1)c1ccn(Cc2ccc(-c3noc(C(F)(F)F)n3)s2)n1 [Compound 1.130, N-phenyl-1-[[5-[5-(trifluoromethyl)-1,2,4-oxadiazol-3-yl]-2-thienyl]methyl]pyrazole-3-carboxamide]
≥ 80%: pest or weed control at 200 ppm [1] | inhibition of growth at 20 ppm [2] | pest or weed control at 200 ppm [3]

CCCNC(=O)c1ccn(Cc2ccc(-c3noc(C(F)(F)F)n3)s2)n1 [Compound 1.137, N-propyl-1-[[5-[5-(trifluoromethyl)-1,2,4-oxadiazol-3-yl]-2-thienyl]methyl]pyrazole-3-carboxamide]
≥ 80%: pest or weed control at 200 ppm [1] | inhibition of growth at 20 ppm [2] | pest or weed control at 200 ppm [3]

CCC(C)NC(=O)c1ncn(Cc2ccc(-c3noc(C(F)(F)F)n3)s2)n1 (stereo not shown) [Compound 1.144, N-sec-butyl-1-[[5-[5-(trifluoromethyl)-1,2,4-oxadiazol-3-yl]-2-thienyl]methyl]-1,2,4-triazole-3-carboxamide]
≥ 80%: pest or weed control at 200 ppm [1] | inhibition of growth at 20 ppm [2] | pest or weed control at 200 ppm [3]

CC(C)(C)CNC(=O)c1ncn(Cc2ccc(-c3noc(C(F)(F)F)n3)s2)n1 [Compound 1.145, N-(2,2-dimethylpropyl)-1-[[5-[5-(trifluoromethyl)-1,2,4-oxadiazol-3-yl]-2-thienyl]methyl]-1,2,4-triazole-3-carboxamide]
≥ 80%: pest or weed control at 200 ppm [1] | inhibition of growth at 20 ppm [2] | pest or weed control at 200 ppm [3]

C=CCNC(=O)c1ncn(Cc2ccc(-c3noc(C(F)(F)F)n3)s2)n1 [Compound 1.151, N-allyl-1-[[5-[5-(trifluoromethyl)-1,2,4-oxadiazol-3-yl]-2-thienyl]methyl]-1,2,4-triazole-3-carboxamide]
≥ 80%: pest or weed control at 200 ppm [1] | inhibition of growth at 20 ppm [2] | pest or weed control at 200 ppm [3]

CON(C)C(=O)c1ccnn1Cc1ccc(-c2noc(C(F)(F)F)n2)s1 [Compound 1.158, N-methoxy-N-methyl-2-[[5-[5-(trifluoromethyl)-1,2,4-oxadiazol-3-yl]-2-thienyl]methyl]pyrazole-3-carboxamide]
≥ 80%: pest or weed control at 200 ppm [1] | inhibition of growth at 20 ppm [2] | pest or weed control at 200 ppm [3]

CC(C)CNC(=O)c1ccnn1Cc1ccc(-c2noc(C(F)(F)F)n2)s1 [Compound 1.160, N-isobutyl-2-[[5-[5-(trifluoromethyl)-1,2,4-oxadiazol-3-yl]-2-thienyl]methyl]pyrazole-3-carboxamide]
≥ 80%: pest or weed control at 200 ppm [1] | inhibition of growth at 20 ppm [2] | pest or weed control at 200 ppm [3]

CCN(CC)C(=O)c1ccnn1Cc1ccc(-c2noc(C(F)(F)F)n2)s1 [Compound 1.161, N,N-diethyl-2-[[5-[5-(trifluoromethyl)-1,2,4-oxadiazol-3-yl]-2-thienyl]methyl]pyrazole-3-carboxamide]
≥ 80%: pest or weed control at 200 ppm [1] | inhibition of growth at 20 ppm [2] | pest or weed control at 200 ppm [3]

O=C(c1ccnn1Cc1ccc(-c2noc(C(F)(F)F)n2)s1)N1CCOCC1 [Compound 1.166, morpholino-[2-[[5-[5-(trifluoromethyl)-1,2,4-oxadiazol-3-yl]-2-thienyl]methyl]pyrazol-3-yl]methanone]
≥ 80%: pest or weed control at 200 ppm [1] | inhibition of growth at 20 ppm [2] | pest or weed control at 200 ppm [3]

C#CCNC(=O)c1ccnn1Cc1ccc(-c2noc(C(F)(F)F)n2)s1 [Compound 1.168, N-prop-2-ynyl-2-[[5-[5-(trifluoromethyl)-1,2,4-oxadiazol-3-yl]-2-thienyl]methyl]pyrazole-3-carboxamide]
≥ 80%: pest or weed control at 200 ppm [1] | inhibition of growth at 20 ppm [2] | pest or weed control at 200 ppm [3]

CCN(C)C(=O)c1ccnn1Cc1ccc(-c2noc(C(F)(F)F)n2)s1 [Compound 1.169, N-ethyl-N-methyl-2-[[5-[5-(trifluoromethyl)-1,2,4-oxadiazol-3-yl]-2-thienyl]methyl]pyrazole-3-carboxamide]
≥ 80%: pest or weed control at 200 ppm [1] | inhibition of growth at 20 ppm [2] | pest or weed control at 200 ppm [3]
